# Measured values reported in patent US6730665B1, “Treatment of bone cancer” (Mayo Foundation for Medical Education and Research, priority 1999, dated 2004).
# What was measured:
# [1] = system: osteosarcoma cells and immortalized cell lines; test: Cell survival, summary statement; type: cell-based
# Experimental: MG63 and TE85 human osteosarcoma cells, and ROS 17/2.8 rat osteosarcoma cells were grown in DMEM/F12 phenol-red free medium containing 10% charcoal-stripped fetal bovine serum (FBS) and supplemented with 100 units/ml penicillin, 100 μg/ml streptomycin. Cell were incubated at 37° C. under 5% CO2 in air. Cells were plated at 5×10^4 cells per well into 24 well plates containing 1 ml of medium per well. After allowing the cells to attach overnight, media in the wells were replaced with fresh 1 ml medium. Human fetal osteoblasts (hFOB) cells and hFOB cells overexpressing estrogen receptor-alpha (hFOB-ERα) and estrogen receptor-beta (hFOB-ERβ) were grown in DMEM/F12 medium containing FBS, penicillin, streptomycin and Geneticin (300 μg/mL). The laboratory of Dr. B. L. Riggs at Mayo Clinic provided primary human osteoblast (HOB) cells. HOB cells were basically established from cancellous bone obtained as waste from orthopedic procedures and cultured as explants to generate the osteoblast-like monolayers as described by Borke et al., J. Clin. Endocrinol. Metab., 1988, 67:1299-1304. Human FOB cells and hFOB cells stably transfected with estrogen receptors (ERs) were maintained at 34° C., while all other cells were incubated at 37° C. under 5% CO2 in air.
# Estrogen metabolites were diluted 1000 fold to give the final required concentrations in each well, and maintained for 72 hrs. The metabolites 2ME, 2OHE, and E2 were purchased from Sigma Chemical Company (St. Louis, Mo.). Stock solutions for each metabolite were made in 95% ethanol. Cell growth was measured by taking the viable cell count. At the end of metabolite treatment, cells were harvested, stained with trypan blue, and counted under a light microscope.
# MG63 cells = test: Bone matrix protein mRNA levels by northern blot; type: cell-based, human; conditions: 10 μM
# Experimental: Time course effects of 2ME on steady-state mRNA levels for bone matrix proteins were determined. MG63 cells in triplicate cultures were treated with 10 μM 2ME. Cells were harvested at the end of 0, 12, 24 and 72 h of treatment and used for RNA isolation. Total RNA isolated from cells was analyzed by northern blot hybridization. Ten μg of RNA sample were denatured by incubation at 52° C. in a solution of 1M glyoxal, 50% dimethyl sulfoxide, and 0.01 M NaH2PO4, and then separated in a 1% agarose gel. RNA separated in agarose gels was transferred to an Amersham Hybond nylon membrane overnight via capillary action in 20× standard saline citrate (SSC) (1×SSC=0.15 M NaCl and 0.015 M sodium citrate, pH 7.0), sodium citrate buffer. The amounts of RNA loaded and transferred were assessed by methylene blue staining of the membranes and hybridization with a [^32P]-labeled cDNA for 18S ribosomal RNA. Membranes were prehybridized for 2 h at 65° C. in buffer containing 50% deionized formamide, 10% dextran sulfate, 5×SSC, 100 μg/ml of heat-denatured single-strand salmon sperm DNA, and 2× Denhardts solution. Hybridization was conducted for 80 min in a buffer containing the above ingredients in addition to a minimum of 10^6 cpm per mL [^32P]-labeled cDNA probe. Labeled type I collagen and osteonectin cDNA were used for probing the blots. The cDNA probes were labeled by random sequence hexanucleotide primer extension using the Megaprime DNA labeling kit from Amersham (Arlington Heights, Ill.). The membranes were washed for 30 min at 45° C. in 2×SSC and for 15 to 60 min in 0.1×SSC at 45° C. The resulting radioactive mRNA bands on the blots were quantitated by Phosphorimager (Molecular Dynamics, Sunnyvale, Calif.).
# MG63 osteosarcoma cells = test: In situ apoptosis by TUNEL assay; type: cell-based, human; conditions: 10 μM, 48 h
# Experimental: The effect of 2ME on in situ apoptosis was examined at the single cell level, based on labeling of DNA strand breaks using the TUNEL (terminal deoxynucleotidyl transferase-mediated dUTP nick end labeling) assay per manufacturer's protocol (Boehringer Mannheim, Indianapolis, Ind.). In this method, the ends of broken DNA strands were labeled with fluorescein-dUTP, and apoptotic cells in adherent cultures were detected by fluorescence microscopy. In brief, TUNEL assay was performed on coverslips of adherent cells contained in individual wells of a 24-well culture dish. Cells were washed once with phosphate buffered saline (PBS) and allowed to air dry before being fixed in 4% phosphate-buffered paraformaldehyde pH 7.4 (Sigma, St. Louis, Mo.) for 1 h at room temperature. Following a PBS rinse, endogenous peroxidase was blocked by incubating cells for 1 h at room temperature with 0.3% hydrogen peroxide in methanol (Sigmna). The latter was performed for the option of converting fluorescein-labeled cells to peroxidase-labeled cells and DAB chromogenic detection. Subsequent to a PBS rinse, cells were permeabilized on ice with incubation in 0.1% Triton X-100 in 0.1% sodium citrate for 2 min. Coverslips were rinsed twice in PBS before the addition of TUNEL reaction mixture (100 μl). […] Coverslips were rinsed 3 times with PBS before visualization by fluorescence microscopy. […]
# estrogen receptors = conditions: cited from earlier work
structure (smiles),measurement,setting,value
"COc1cc2c(cc1O)CC[C@@H]1[C@@H]2CC[C@]2(C)[C@@H](O)CC[C@@H]12 [2ME, 2-methoxyestradiol]",reduction of cell survival,"[1]; 2 μM, continuous treatment, 72 hours",85%
same,reduction of cell survival,[1]; 20 μM,95%
same,decrease in osteonectin mRNA level,MG63 cells; 12 h,50%
same,decrease in type 1 collagen mRNA level,MG63 cells; 12 h,26%
same,decrease in osteonectin mRNA level,MG63 cells; 24 h,38%
same,decrease in type 1 collagen mRNA level,MG63 cells; 24 h,37%
same,mRNA levels for the bone matrix proteins (in words),MG63 cells; 72 h,returned to normal levels
same,TUNEL staining,MG63 osteosarcoma cells,Positive staining
same,affinity for estrogen receptors (in words),estrogen receptors,negligible affinity
